Experimental data reported in ChEMBL document CHEMBL6114946, “Development and characterization of pyridyl carboxamides as potent and highly selective Nav1.8 inhibitors” (Bioorg Med Chem Lett, 2025).
≈ marks a conversion by molar mass, not a printed value. Calls of active or inactive are those of the source. The rule behind the calls is not given here.

Legend:
[1] = target: T1, Sodium channel protein type 10 subunit alpha (Homo sapiens, UniProt Q9Y5Y9); experiment: Inhibition of human Nav1.8 with resting membrane potential at half inactivated state by PatchXpress high-throughput electrophysiology method
Target sequence in this assay (Q9Y5Y9 whole entry): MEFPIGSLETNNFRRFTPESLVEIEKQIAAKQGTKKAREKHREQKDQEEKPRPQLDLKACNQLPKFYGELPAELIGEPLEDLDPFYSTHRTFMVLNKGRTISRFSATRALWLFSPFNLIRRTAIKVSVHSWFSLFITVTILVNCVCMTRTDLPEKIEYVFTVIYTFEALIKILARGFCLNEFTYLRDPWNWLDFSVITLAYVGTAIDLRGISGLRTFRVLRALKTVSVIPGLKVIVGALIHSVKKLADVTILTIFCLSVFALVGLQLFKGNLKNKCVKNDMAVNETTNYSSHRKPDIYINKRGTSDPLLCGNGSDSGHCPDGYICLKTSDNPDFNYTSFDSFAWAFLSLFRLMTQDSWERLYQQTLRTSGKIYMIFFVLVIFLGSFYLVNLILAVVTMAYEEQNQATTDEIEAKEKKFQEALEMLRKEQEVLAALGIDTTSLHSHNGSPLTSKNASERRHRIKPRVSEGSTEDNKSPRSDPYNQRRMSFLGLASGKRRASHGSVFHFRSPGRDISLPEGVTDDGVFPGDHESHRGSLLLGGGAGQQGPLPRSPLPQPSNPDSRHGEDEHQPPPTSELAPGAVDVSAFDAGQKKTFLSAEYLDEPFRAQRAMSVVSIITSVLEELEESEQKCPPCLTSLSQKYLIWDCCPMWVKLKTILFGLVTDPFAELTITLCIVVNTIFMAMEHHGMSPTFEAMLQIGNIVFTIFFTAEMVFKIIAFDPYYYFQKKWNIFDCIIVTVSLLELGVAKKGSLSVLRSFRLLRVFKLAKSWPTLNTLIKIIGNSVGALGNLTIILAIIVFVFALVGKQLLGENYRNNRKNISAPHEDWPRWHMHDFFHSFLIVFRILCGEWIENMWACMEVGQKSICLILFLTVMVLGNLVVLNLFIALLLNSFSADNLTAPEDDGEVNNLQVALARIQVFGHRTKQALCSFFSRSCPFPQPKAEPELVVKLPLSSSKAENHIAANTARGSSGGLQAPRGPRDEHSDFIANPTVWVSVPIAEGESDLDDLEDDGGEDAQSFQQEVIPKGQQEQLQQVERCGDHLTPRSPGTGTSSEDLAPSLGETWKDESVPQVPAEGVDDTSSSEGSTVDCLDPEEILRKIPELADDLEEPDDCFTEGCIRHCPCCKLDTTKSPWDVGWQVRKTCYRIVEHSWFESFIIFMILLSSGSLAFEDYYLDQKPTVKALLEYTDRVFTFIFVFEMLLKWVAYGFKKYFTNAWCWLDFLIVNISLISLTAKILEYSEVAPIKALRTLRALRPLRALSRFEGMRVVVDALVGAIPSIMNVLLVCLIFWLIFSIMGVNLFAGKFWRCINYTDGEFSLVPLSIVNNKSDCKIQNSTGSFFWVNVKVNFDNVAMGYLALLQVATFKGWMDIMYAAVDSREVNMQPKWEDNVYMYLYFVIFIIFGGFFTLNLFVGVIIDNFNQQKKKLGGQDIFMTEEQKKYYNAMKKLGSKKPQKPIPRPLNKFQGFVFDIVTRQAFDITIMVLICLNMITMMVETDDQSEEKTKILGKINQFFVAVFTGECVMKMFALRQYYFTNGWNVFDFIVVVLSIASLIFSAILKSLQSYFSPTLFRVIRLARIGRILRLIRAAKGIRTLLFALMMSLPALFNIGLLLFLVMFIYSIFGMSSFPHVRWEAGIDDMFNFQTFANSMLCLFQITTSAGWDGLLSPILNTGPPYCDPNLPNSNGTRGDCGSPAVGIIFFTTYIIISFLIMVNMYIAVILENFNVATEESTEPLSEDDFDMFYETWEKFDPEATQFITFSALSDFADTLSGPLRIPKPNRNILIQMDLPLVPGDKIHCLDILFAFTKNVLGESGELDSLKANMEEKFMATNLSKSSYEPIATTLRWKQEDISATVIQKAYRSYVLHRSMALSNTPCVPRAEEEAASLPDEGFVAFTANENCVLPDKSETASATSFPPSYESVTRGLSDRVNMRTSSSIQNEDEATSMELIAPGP

[2] = target: T1, Sodium channel protein type 10 subunit alpha; experiment: Inhibition of Nav1.8 (unknown origin) at 10 uM by Ionflux high-throughput automated patch method
Target sequence in this assay (Q9Y5Y9 whole entry, looked up): as the sequence (Q9Y5Y9 whole entry) above

[3] = Kinetic solubility of the compound in pH 7.4 phosphate buffered saline measured after 2 hrs by LC/MS analysis; format: physicochemical; details: read-out: Kinetic_solubility
[4] = Clearance in rat at 1 mg/kg; format: ADME, organism-based; details: in vivo
[5] = target: Sodium channel protein type 10 subunit alpha (Mus musculus, UniProt Q6QIY3); experiment: Inhibition of mouse Nav1.8 with resting membrane potential at half inactivated state by PatchXpress high-throughput electrophysiology method
[6] = target: Voltage-gated inwardly rectifying potassium channel KCNH2 (Homo sapiens, UniProt Q12809); experiment: Inhibition of human ERG; format: toxicity
[7] = Protein binding in human plasma assessed as unbound fraction; format: ADME, cell-free
[8] = Stability in human liver microsomes assessed as parent compound remaining measured after 60 mins; format: ADME, Microsome; details: read-out: Stability
[9] = target: Cytochrome P450 3A4 (Homo sapiens, UniProt P08684); experiment: Inhibition of CYP3A4 (unknown origin); format: ADME
[10] = target: T2, Cytochrome P450 1A2 (Homo sapiens, UniProt P05177); experiment: Inhibition of CYP1A2 (unknown origin); format: ADME
T2 sequence (P05177 whole entry): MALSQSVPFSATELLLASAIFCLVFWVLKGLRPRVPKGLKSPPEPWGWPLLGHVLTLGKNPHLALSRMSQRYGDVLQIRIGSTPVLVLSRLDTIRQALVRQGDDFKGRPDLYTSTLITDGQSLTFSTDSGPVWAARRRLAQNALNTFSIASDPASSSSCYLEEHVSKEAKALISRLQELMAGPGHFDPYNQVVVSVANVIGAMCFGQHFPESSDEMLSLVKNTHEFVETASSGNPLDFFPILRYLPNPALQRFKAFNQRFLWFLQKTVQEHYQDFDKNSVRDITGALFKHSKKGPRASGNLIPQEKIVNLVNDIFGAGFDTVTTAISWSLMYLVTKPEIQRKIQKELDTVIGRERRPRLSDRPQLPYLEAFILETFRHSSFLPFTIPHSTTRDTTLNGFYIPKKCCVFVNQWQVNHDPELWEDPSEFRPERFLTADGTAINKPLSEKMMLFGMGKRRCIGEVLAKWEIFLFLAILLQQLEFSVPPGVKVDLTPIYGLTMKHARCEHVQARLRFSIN

[11] = Genotoxicity in Salmonella typhimurium by Ames test; format: toxicity; details: salmonella enterica subsp. enterica serovar typhimurium
[12] = target: T1, Sodium channel protein type 10 subunit alpha; experiment: Inhibition of Nav1.8 (unknown origin) over expressed in HEK cells assessed as reduction in deltamethrin-stimulated channel activation by FLIPR assay; format: cell-based
Target sequence in this assay (Q9Y5Y9 whole entry): as the sequence (Q9Y5Y9 whole entry) above

Sodium channel protein type 10 subunit alpha (Mus musculus, UniProt Q6QIY3), sequence (Q6QIY3 whole entry): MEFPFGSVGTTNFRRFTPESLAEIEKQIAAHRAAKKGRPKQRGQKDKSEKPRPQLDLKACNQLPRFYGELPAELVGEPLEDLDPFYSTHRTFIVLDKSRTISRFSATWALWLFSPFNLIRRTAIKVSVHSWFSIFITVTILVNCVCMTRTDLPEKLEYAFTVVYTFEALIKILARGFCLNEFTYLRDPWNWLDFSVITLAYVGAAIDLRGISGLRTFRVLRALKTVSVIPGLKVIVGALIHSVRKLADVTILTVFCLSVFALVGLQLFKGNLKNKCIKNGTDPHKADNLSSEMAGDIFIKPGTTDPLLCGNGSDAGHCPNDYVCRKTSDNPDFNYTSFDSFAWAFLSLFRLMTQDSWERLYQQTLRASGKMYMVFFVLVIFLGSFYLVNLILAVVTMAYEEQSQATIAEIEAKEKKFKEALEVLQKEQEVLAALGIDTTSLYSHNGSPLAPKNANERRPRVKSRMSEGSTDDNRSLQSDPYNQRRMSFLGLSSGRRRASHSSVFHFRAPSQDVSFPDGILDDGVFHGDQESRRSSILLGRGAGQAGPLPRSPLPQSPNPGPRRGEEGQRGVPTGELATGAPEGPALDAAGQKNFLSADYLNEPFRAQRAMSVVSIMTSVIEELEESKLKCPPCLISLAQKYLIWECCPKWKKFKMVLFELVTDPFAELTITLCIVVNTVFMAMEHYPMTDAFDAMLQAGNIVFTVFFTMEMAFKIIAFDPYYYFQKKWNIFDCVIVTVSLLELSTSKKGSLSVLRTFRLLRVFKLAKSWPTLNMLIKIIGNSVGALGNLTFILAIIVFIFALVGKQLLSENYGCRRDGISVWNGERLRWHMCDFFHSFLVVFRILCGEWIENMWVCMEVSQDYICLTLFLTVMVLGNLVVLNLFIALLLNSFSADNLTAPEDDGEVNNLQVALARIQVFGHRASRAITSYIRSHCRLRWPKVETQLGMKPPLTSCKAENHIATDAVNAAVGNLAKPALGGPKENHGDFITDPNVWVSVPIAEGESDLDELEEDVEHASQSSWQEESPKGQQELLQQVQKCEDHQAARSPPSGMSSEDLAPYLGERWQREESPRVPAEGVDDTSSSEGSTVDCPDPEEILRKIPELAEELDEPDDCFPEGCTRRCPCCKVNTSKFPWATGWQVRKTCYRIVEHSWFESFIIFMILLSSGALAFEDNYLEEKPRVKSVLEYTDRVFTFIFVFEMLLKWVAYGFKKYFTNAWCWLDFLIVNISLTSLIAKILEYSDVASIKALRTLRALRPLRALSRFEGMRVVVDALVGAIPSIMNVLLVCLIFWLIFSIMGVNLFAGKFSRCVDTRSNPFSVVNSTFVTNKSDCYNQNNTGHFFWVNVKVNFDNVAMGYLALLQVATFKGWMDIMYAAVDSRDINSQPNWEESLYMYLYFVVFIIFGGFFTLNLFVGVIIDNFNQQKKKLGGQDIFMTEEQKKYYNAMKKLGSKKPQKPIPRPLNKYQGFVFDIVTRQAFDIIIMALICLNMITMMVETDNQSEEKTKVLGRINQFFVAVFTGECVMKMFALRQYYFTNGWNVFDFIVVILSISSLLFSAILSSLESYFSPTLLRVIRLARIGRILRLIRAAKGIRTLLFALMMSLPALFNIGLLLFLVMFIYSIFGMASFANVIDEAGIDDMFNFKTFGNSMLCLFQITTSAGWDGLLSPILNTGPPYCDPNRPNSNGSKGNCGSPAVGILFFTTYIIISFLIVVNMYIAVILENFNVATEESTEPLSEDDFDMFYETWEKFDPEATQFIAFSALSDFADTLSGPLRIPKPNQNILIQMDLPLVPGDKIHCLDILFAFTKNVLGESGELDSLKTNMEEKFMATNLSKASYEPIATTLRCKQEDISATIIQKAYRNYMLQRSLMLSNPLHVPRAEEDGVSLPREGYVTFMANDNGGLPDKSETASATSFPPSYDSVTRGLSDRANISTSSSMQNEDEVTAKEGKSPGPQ
Voltage-gated inwardly rectifying potassium channel KCNH2, sequence (Q12809 whole entry): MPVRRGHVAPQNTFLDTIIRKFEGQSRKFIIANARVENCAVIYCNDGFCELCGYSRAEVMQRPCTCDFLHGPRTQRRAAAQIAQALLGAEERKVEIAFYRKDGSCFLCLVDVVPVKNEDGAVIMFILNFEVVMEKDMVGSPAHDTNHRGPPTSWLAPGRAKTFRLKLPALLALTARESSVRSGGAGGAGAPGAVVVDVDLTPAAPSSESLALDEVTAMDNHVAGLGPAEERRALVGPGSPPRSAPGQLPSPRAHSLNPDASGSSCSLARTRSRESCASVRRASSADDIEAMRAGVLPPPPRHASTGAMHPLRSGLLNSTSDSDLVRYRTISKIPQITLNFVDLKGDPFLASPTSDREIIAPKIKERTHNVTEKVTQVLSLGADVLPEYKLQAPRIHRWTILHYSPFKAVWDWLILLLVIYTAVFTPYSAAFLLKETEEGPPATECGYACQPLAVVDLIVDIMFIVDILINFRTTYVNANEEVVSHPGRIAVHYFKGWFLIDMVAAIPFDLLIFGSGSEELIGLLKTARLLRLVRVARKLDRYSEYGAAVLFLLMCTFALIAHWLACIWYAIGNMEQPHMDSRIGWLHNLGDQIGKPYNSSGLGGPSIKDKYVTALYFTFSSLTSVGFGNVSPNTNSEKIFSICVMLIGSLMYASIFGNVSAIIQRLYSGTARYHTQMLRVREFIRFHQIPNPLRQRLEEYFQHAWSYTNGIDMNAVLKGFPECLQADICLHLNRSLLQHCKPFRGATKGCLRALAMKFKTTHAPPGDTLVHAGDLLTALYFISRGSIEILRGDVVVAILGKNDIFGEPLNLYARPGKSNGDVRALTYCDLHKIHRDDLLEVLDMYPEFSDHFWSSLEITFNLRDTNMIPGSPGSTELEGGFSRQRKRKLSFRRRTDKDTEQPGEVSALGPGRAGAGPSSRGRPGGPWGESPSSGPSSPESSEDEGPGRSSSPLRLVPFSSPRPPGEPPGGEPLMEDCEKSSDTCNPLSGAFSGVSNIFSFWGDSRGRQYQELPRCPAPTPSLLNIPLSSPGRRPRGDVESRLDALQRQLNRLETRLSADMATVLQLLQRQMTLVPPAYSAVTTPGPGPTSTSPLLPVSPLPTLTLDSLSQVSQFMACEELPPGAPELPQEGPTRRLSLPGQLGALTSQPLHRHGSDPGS

Row | SMILES | IC50 [1] [nM] | inhibition [2] | IC50 [12] [nM] | also measured
1 | COCCCNC(=O)c1cc(C(F)(F)F)cnc1Oc1ccc(F)cc1OC | > 10000 | inactive |  | 
2 | O=C(Nc1ccc[n+]([O-])c1)c1cc(C(F)(F)F)cnc1Oc1ccc(F)cc1Cl | 56 | Active |  | solubility kinetic at 2 h [3]: 0.084 µg/mL (≈ 0.196 µM); clearance [4]: 3.3 mL/min/kg; IC50 [5]: 920 nM; IC50 [6]: 15000 nM; fraction unbound [7]: 0.1; remaining at 1 h [8]: 95%; INH [9]: > 30 µM; INH [10]: > 30 µM; Activity [11]: Non-toxic
3 | COc1cc(F)ccc1Oc1ncc(C(F)(F)F)cc1C(=O)Nc1ccccn1 |  | Active | > 5000 | 
4 | Cc1cc(F)ccc1Oc1ncc(C(F)(F)F)cc1C(=O)Nc1cccc(S(C)(=O)=O)c1 |  | Active | 120 | 
5 | CN=S(C)(=O)c1cccc(NC(=O)c2cc(C(F)(F)F)cnc2Oc2ccc(F)cc2OC)c1 (centres undefined) | 68 | Active | 69 | solubility kinetic at 2 h [3]: 27 µg/mL (≈ 54.3 µM)
6 | COc1cc(F)ccc1Oc1nccnc1C(=O)Nc1cccc(S(C)(=O)=O)c1 | > 10000 | inactive |  | 
7 | COc1cc(F)ccc1Oc1nc(C(F)(F)F)ncc1C(=O)Nc1cccc(S(C)(=O)=O)c1 | > 10000 | inactive |  | 
8 | COc1cc(F)ccc1Oc1ncc(C(F)(F)F)cc1C(=O)NCCN(C)C | > 10000 | inactive |  | 
9 | Nc1ccc[n+]([O-])c1 |  |  |  | Activity [11]: Non-toxic
10 | COc1cc(F)ccc1Oc1ncc(C(F)(F)F)cc1C(=O)Nc1cccnc1 |  | Active | 2200 | 
11 | COc1cc(F)ccc1Oc1cc(C(F)(F)F)ncc1C(=O)Nc1cccc(S(C)(=O)=O)c1 | 32 | Active | 92 | 
12 | COc1cc(F)ccc1Oc1ncc(C(F)(F)F)cc1C(=O)Nc1ccncn1 |  | Active | 240 | 
13 | COc1cc(F)ccc1Oc1ncc(C(F)(F)F)cc1C(=O)Nc1ccc[n+]([O-])c1 |  | Active | 1100 | solubility kinetic at 2 h [3]: 128 µg/mL (≈ 302 µM)
14 | CS(=O)(=O)c1cccc(NC(=O)c2cc(C(F)(F)F)cnc2Oc2ccccc2)c1 |  | Active | 1600 | 
15 | CC(C)Oc1ncc(C(F)(F)F)cc1C(=O)Nc1cccc(S(C)(=O)=O)c1 | > 10000 | inactive |  | 
16 | CS(=O)(=O)c1cccc(NC(=O)c2cc(C(F)(F)F)cnc2Oc2ccc(OC(F)(F)F)cc2)c1 | 20 | Active |  | solubility kinetic at 2 h [3]: 4 µg/mL (≈ 7.69 µM)
17 | COc1cc(F)ccc1Oc1ncc(C(F)(F)F)cc1C(=O)Nc1cccc(P(C)(C)=O)c1 |  | Active | 3000 | 
18 | COc1cc(F)ccc1Oc1nc(C(F)(F)F)ccc1C(=O)Nc1cccc(S(C)(=O)=O)c1 |  | Active | 102 | 
